Measured values published in patent EP0326526A1, “Aminoketones of substituted dibenzo- and pyridobenzo-azepinones and pharmaceutical compositions” (ISTITUTO DE ANGELI S.p.A., priority 1988, dated 1989).

How the values were obtained:
[1] = target: T1, M₂ muscarinic receptors (heart) (Rattus norvegicus, UniProt P10980); test: Muscarinic M₂ receptor binding: displacement of ³H-NMS from total heart homogenate; settings: read-out: IN VITRO RECEPTOR BINDING TEST KD M₂ (heart)
T1 construct: displacement of ³H-NMS from total heart homogenate; from tissue; rat inferred
T1 sequence (P10980 1-466): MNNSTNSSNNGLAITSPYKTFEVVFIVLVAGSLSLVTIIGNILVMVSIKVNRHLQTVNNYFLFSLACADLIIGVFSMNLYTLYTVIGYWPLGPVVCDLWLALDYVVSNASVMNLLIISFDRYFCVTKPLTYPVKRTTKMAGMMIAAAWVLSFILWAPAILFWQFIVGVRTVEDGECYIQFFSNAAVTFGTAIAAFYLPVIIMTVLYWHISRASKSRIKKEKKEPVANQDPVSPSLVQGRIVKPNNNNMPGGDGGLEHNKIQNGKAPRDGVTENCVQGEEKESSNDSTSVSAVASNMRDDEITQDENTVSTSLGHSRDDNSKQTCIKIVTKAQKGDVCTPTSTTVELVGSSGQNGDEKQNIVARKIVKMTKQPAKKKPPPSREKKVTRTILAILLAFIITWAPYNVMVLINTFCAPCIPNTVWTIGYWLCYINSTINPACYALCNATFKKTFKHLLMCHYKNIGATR

[2] = test system: conscious dogs equipped with cronic gastric fistula; test: Conscious gastric fistula dog in vivo: 2-DG-elicited gastric secretion, heart rate and pupil diameter; parameters: species or system male Beagle dogs; settings: cumulative i.v. dosing; for Heart rate ED₅₀ (beats/min): dose increasing heart rate by 50 beats per min; for ED₅₀ (agonist 2-DG*) Acid output: dose inhibiting 50% acid output; for ED₅₀ (agonist 2-DG*) Acid output / ED₅₀ (agonist 2-DG*) Pepsin output: secretion elicited by 2-deoxy-D-glucose 100 mg/kg i.v.; for ED₅₀ (agonist 2-DG*) Pepsin output: dose inhibiting 50% pepsin output; for Dose doubling pupil diameter: dose which at least doubled the initial pupil diameter
Experimental: (§1) Antimuscarinic activity and selectivity were examined in vitro by receptor binding studies in two tissues endowed with M₁ and M₂ muscarinic receptors (cerebral cortex, heart) and in vivo by studying the acid secretion and pepsin inhibition (M₁ response) in comparison with the cardiac and mydriatic effects (M₂ response) in conscious dogs equipped with cronic gastric fistula.
Studies were performed in 5 male Beagle dogs (15-22 Kg) with well established gastric fistula. Gastric secretion was elicited by 2-deoxy-D-glucose (2-DG) (100 mg/kg, infused intravenously in 10 min), and collected by gravity drainage at 15 min intervals. […] Each sample was measured for volume (to the nearest 0.1 ml) and acidity (titration of 1 ml sample to pH 7 with NaOH 0.1 N by means of an automatic titrator ITT Radiometer PHM 62); the pepsin content in each 15 min sample was determined on 0.1 ml of gastric juice (diluted 1:20 wich HCl 0.1 N), using the hemoglobin digestion method described by Anson (J.Gen. Phys. 22 ([…]) 79) and expressed in mU Anson.
The compounds were injected intravenously in a cumulative fashion, each dose being administered at 15 min intervals, starting after the peak response was reached. At each dose level, heart rate was measured by a cardiotachometer and pupil diameter scored under constant light. Doses inhibiting 50% (ED₅₀ and their 95% confidence limits) acid and pepsin output and maximal inhibition (I max), were obtained by fractional linear transformation of the data: D/I = aD+b, were D = dose of antagonist; I = % inhibition of acid or pepsin output; I max = 1/a; ED₅₀ = b/a. (Hirschowitz B.I. Am. J. Physiol. 216: 487-489 1969) Doses increasing heart rate by 50 beats per min (ED₅₀ and their 95% confidence limits) were evaluated by linear regression analysis of the data relating dose to effect.
Doses of compound which at least doubled the initial pupil diameter were also determined.

[3] = target: T2, M₁ muscarinic receptors (cerebral cortex) (Rattus norvegicus, UniProt P08482); test: Muscarinic M₁ receptor binding: displacement of ³H-pirenzepine from cerebral cortex homogenate; parameters: species or system male CD-COOBBS rats; settings: competition against 0.5 nM ³H-pirenzepine, 45 min at 30°C, read-out: IN VITRO RECEPTOR BINDING TEST KD M₁ (cortex)
T2 construct: displacement of ³H-pirenzepine from cerebral cortex homogenate; from tissue; host or cells: rat cerebral cortex homogenate
T2 sequence (P08482 1-460): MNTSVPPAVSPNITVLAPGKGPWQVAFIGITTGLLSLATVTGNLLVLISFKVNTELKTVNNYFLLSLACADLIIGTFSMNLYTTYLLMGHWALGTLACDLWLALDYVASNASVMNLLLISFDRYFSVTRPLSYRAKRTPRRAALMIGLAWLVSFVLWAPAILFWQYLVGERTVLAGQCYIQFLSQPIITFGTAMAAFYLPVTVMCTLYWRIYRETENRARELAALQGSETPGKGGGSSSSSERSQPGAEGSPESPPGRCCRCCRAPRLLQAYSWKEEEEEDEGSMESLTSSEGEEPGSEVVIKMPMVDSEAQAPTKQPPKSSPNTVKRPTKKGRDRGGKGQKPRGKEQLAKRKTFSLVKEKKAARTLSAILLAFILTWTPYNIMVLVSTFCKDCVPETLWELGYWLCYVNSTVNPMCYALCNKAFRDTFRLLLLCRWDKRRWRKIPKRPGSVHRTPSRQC
Experimental: as §1
Muscarinic M₁ activity was determined by studying the displacement of ³H-pirenzepine from cerebral cortex homogenate according to the procedure reported below: The cerebral cortex donors were male CD-COOBBS rats, 220-250 g body weight. The homogenization process was carried out in a Potter-Evelhjem apparatus in the presence of Na⁺/Mg⁺⁺ HEPES buffer; pH 7.4 (100 mM NaCl, 10 mM MgCl₂, 20 mM HEPES); by filtering the suspension through two layers of cheesecloth. Binding curves for the under study compounds were derived indirectly from competition experiments against 0.5 nM ³H-pirenzepine labelling the muscarinic receptors of the cerebral cortex. 1 ml of the homogenate was incubated for 45 min at 30°C in the presence of a marker ligand and dif ferent concentrations of the cold ligand, conditions under which equilibrium was reached as determined by appropriate association experiments. The incubation was termination by centrifugation (12,000 rpm for 3 min) at room temperature using an Eppendorf microcentrifuge. The resultant pellet was washed twice with 1.5 ml saline to remove the free radioactivity and the final pellet was allowed to drain. The tips of the tubes containing the pellet were cut off and 200µl of tissue subilizer (Lumasolve, Lumac) were added and left to stand overnight. Radioactivity was then counted after addition of 4 ml of liquid scintillation mixture (Dimilume/Toluene 1:10 v:v, Packard).
Assays were carried out in triplicate or quadruplicate and the non-specific binding was defined as the radioactivity bound or entrapped in the pellet when the incubation medium contained 1 µM atropine sulphate. Non-specific binding avaraged less then 30%. […]

CN1CCC(C(=O)C2c3ccccc3NC(=O)c3ccccc32)CC1 (stereo not drawn) [Compound 1, 6,11-dihydro-11-[(1-methyl-4-piperidinyl)-carbonyl]-5H-dibenz[b,e]-azepin-6-one]
Kd [1]: 212 nM
Heart rate ED₅₀ (beats/min) [2]: 204 µg/kg i.v.
ED₅₀ (agonist 2-DG*) Acid output [2]: 6.2 µg/kg i.v.
ED₅₀ (agonist 2-DG*) Pepsin output [2]: 8.0 µg/kg i.v.
Dose doubling pupil diameter [2]: 512 µg/kg i.v.
Kd [3]: 2.1 nM

CN1CCC(C(=O)C2c3ccccc3C(=O)Nc3cccc(F)c32)CC1 (stereo not drawn) [Compound 4, 1-fluoro-6,11-dihydro-11-[(1-methyl-4-piperidinyl)-carbonyl]-5H-dibenz[b,e]-azepin-6-one]
Kd [1]: 210 nM
Heart rate ED₅₀ (beats/min) [2]: 191 µg/kg i.v.
ED₅₀ (agonist 2-DG*) Acid output [2]: 6.1 µg/kg i.v.
ED₅₀ (agonist 2-DG*) Pepsin output [2]: 5.3 µg/kg i.v.
Dose doubling pupil diameter [2]: 512 µg/kg i.v.
Kd [3]: 2.2 nM

CN1CCC(C(=O)C2c3ccccc3C(=O)Nc3ccc(Cl)nc32)CC1 (stereo not drawn) [Compound 12, 2-chloro-6,11-dihydro-11-[(1-methyl-4-piperidinyl)-carbonyl]-5H-pyrido[2,3b]-benzazepin-6-one]
Kd [1]: 279 nM
Heart rate ED₅₀ (beats/min) [2]: 78 µg/kg i.v.
ED₅₀ (agonist 2-DG*) Acid output [2]: 7.2 µg/kg i.v.
ED₅₀ (agonist 2-DG*) Pepsin output [2]: 6.3 µg/kg i.v.
Dose doubling pupil diameter [2]: 320 µg/kg i.v.
Kd [3]: 3.15 nM
